# Laboratory results reported in patent US20240376085A1 (Janssen Pharmaceutica NV, priority 2021, published 2024).
# What was measured:
# IL-17A : IL-17RA binding = target: T1, IL-17A : IL-17RA binding (Homo sapiens, UniProt Q16552, K93Q); experiment: IL-17A(FLAG-tagged):IL-17RA(His-tagged) binding disruption Eu-HTRF assay, Protocol 1; conditions: FLAG-IL-17A 2.5 nM at 2x final concentration; average if tested more than once
# T1 construct: Name: IL-17A-Flag
# Method in brief: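 IC50 came from a one-site competition fit of the acceptor/donor (665/620 nm) HTRF ratio. His-tagged IL-17RA, Eu-anti-FLAG and D2-anti-His were added after a 1 h rt compound preincubation with FLAG-tagged IL-17A dimer in PBS/0.01% Triton X-100, followed by 2 h at rt before reading.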
# [1] = test system: IL-17A-induced G-CSF production in human normal keratinocyte (NHK); experiment: NHK assay: IL-17A-induced G-CSF production in normal human keratinocytes; assay type: cell-based; conditions: 24 h, IL-17A 5 ng/mL, average if tested more than once
# Method in brief: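 Stimulus rhIL-17A 5 ng/mL final, premixed 1 h rt with compound; adult NHK, 5% FBS, 0.2% DMSO. Viability by CellTiter-Glo vs DMSO.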
# T1 sequence (Q16552 with tags, fused parts or gaps K93Q): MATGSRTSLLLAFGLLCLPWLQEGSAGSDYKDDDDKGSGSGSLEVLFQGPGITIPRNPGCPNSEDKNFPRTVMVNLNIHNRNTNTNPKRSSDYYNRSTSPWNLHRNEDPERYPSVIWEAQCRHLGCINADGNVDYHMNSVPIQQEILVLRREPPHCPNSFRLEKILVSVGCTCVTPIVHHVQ
IC50 (IL-17A : IL-17RA binding),Compound,"IC50 ([1]; Homo sapiens, Keratinocyte)",IC50 [1]
> 100 nM,"C[C@@H](NC(=O)CCC(F)(F)F)c1ccc2[nH]c([C@@H](NC(=O)c3cnn(CCCC(F)(F)F)n3)C3CCC(F)(F)CC3)nc2c1 [Example 19, N—[(S)-(4,4-Difluorocyclohexyl)-[6-[(1R)-1-(4,4,4-trifluorobutanoylamino)ethyl]-1H-benzimidazol-2-yl]methyl]-2-(4,4,4-trifluorobutyl)triazole-4-carboxamide]",50 to 100 nM,
< 50 nM,"Cc1nonc1C(=O)N[C@@H](COC(C)(C)C(F)(F)F)c1nc2ccc([C@H](NC(=O)CC3CC(F)(F)C3)C3CC3)cc2[nH]1 (relative stereo) [Example 161, N—((R*)-1-(6-((R)-Cyclopropyl(2-(3,3-difluorocyclobutyl)acetamido)methyl)-1H-benzo[d]imidazol-2-yl)-2-((1,1,1-trifluoro-2-methylpropan-2-yl)oxy)ethyl)-4-methyl-1,2,5-oxadiazole-3-carboxamide]",50 to 100 nM,
> 100 nM,"CC(NC(=O)CCC(F)(F)F)c1ccc2nc([C@H](CC(C)(C)C(F)(F)F)NC(=O)c3ccnn3CCC(F)(F)F)[nH]c2c1 (single isomer, unassigned) [Example 230, N—((S)-4,4,4-Trifluoro-3,3-dimethyl-1-(6-((R*)-1-(4,4,4-trifluorobutanamido)ethyl)-1H-benzo[d]imidazol-2-yl)butyl)-1-(3,3,3-trifluoropropyl)-1H-pyrazole-5-carboxamide]",,50 to 100 nM
< 50 nM,"CC(C)c1nocc1C(=O)N[C@H](c1nc2cc([C@@H](C)NC(=O)CCC(F)(F)F)ccc2[nH]1)C1CCC(F)(F)CC1 [Example 204, N—((S)-(4,4-Difluorocyclohexyl)(5-((R)-1-(4,4,4-trifluorobutanamido)ethyl)-1H-benzo[d]imidazol-2-yl)methyl)-3-isopropylisoxazole-4-carboxamide]",< 50 nM,
> 100 nM,"CC(CC(=O)N[C@H](C)c1ccc2nc([C@@H](NC(=O)c3cc(F)ccc3F)C3CCC(F)(F)CC3)[nH]c2c1)C(F)(F)F (single isomer, unassigned) [Example 140, N—((S)-(4,4-Difluorocyclohexyl)(6-((R)-1-((S*)-4,4,4-trifluoro-3-methylbutanamido)ethyl)-1H-benzo[d]imidazol-2-yl)methyl)-2,5-difluorobenzamide]",,> 100 nM
> 100 nM,"CC(CC(=O)N[C@H](C)c1ccc2nc([C@@H](NC(=O)c3ccnn3CC(F)(F)F)C3CCC(F)(F)CC3)[nH]c2c1)C(F)(F)F (single isomer, unassigned) [Example 137, N—((S)-(4,4-Difluorocyclohexyl)(6-((R)-1-((S*)-4,4,4-trifluoro-3-methylbutanamido)ethyl)-1H-benzo[d]imidazol-2-yl)methyl)-1-(2,2,2-trifluoroethyl)-1H-pyrazole-5-carboxamide]",,50 to 100 nM
> 100 nM,"C[C@@H](NC(=O)CCC(F)(F)F)c1ccc2[nH]c([C@@H](NC(=O)c3cnn(CCC(F)(F)F)c3)C3CCC(F)(F)CC3)nc2c1 [Example 1, N—[(S)-(4,4-Difluorocyclohexyl)-[6-[(1R)-1-(4,4,4-trifluorobutanoylamino)ethyl]-1H-benzimidazol-2-yl]methyl]-1-(3,3,3-trifluoropropyl)pyrazole-4-carboxamide]",> 100 nM,
< 50 nM,"CC(CC(=O)N[C@@H](c1ccc2nc([C@H](CC(C)(C)C(F)(F)F)NC(=O)c3nonc3C3CC3)[nH]c2c1)C1CC1)C(F)(F)F (single isomer, unassigned) [Example 182, 4-Cyclopropyl-N—((S)-1-(6-((R)-cyclopropyl((S*)-4,4,4-trifluoro-3-methylbutanamido)methyl)-1H-benzo[d]imidazol-2-yl)-4,4,4-trifluoro-3,3-dimethylbutyl)-1,2,5-oxadiazole-3-carboxamide]",,< 50 nM
